Test results as given in ChEMBL document CHEMBL5291721, “A preclinical secondary pharmacology resource illuminates target-adverse drug reaction associations of marketed drugs” (Nat Commun, 2023).

Legend:
[1] = biological target: Vascular endothelial growth factor receptor 2 (Homo sapiens, UniProt P35968); type: functional
Estrogen receptor = biological target: T1, Estrogen receptor (Homo sapiens, UniProt P03372); type: functional
T1 sequence (P03372 whole entry): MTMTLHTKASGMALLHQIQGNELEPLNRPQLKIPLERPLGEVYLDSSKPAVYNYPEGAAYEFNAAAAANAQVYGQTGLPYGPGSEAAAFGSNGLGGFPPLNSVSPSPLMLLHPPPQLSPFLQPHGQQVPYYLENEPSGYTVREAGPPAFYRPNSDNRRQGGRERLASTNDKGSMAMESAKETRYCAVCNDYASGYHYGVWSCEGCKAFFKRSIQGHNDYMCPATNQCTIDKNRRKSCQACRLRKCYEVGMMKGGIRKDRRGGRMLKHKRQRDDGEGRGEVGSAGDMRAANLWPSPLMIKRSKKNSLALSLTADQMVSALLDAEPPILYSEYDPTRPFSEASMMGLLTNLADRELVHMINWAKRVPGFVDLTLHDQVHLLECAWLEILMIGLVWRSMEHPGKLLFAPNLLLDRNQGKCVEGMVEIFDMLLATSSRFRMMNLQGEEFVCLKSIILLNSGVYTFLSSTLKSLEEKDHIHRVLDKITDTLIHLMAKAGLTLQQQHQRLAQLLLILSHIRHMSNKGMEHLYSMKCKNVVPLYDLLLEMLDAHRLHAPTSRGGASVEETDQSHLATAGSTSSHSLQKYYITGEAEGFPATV

[2] = biological target: Synaptic vesicular amine transporter (Rattus norvegicus, UniProt Q01827); type: functional
Chain of Synaptic vesicular amine transporter (Q01827 whole entry): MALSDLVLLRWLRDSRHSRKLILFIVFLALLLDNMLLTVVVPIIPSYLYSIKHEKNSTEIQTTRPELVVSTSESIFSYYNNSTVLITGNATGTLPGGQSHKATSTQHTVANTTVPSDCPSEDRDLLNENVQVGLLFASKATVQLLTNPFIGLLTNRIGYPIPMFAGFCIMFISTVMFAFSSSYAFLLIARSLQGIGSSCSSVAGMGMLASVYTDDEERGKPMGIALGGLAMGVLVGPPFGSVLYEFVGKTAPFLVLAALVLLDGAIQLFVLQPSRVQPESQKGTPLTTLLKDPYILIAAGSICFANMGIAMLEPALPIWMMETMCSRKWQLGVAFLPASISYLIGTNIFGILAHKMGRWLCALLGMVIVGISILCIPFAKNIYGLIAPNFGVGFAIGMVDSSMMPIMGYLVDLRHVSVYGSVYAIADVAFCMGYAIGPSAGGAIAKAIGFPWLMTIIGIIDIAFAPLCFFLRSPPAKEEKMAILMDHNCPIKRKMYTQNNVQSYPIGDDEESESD

Cannabinoid receptor 1 = Cannabinoid receptor 1 (Homo sapiens, UniProt P21554)
Chain of Cannabinoid receptor 1 (P21554 whole entry): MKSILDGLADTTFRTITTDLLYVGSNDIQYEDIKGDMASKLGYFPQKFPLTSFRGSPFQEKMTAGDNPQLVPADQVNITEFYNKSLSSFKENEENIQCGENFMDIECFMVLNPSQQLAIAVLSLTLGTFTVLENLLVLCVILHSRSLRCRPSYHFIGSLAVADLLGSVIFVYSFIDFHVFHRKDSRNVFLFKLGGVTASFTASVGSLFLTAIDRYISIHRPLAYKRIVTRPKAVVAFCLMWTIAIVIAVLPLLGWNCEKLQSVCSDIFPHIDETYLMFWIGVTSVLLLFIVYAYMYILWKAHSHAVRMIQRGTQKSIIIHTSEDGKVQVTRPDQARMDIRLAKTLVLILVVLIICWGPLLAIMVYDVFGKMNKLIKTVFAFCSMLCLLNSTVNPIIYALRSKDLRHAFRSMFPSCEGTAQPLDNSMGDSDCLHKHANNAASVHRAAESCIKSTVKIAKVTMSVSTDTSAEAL

Progesterone receptor = biological target: T2, Progesterone receptor (Homo sapiens, UniProt P06401)
T2 sequence (P06401 whole entry): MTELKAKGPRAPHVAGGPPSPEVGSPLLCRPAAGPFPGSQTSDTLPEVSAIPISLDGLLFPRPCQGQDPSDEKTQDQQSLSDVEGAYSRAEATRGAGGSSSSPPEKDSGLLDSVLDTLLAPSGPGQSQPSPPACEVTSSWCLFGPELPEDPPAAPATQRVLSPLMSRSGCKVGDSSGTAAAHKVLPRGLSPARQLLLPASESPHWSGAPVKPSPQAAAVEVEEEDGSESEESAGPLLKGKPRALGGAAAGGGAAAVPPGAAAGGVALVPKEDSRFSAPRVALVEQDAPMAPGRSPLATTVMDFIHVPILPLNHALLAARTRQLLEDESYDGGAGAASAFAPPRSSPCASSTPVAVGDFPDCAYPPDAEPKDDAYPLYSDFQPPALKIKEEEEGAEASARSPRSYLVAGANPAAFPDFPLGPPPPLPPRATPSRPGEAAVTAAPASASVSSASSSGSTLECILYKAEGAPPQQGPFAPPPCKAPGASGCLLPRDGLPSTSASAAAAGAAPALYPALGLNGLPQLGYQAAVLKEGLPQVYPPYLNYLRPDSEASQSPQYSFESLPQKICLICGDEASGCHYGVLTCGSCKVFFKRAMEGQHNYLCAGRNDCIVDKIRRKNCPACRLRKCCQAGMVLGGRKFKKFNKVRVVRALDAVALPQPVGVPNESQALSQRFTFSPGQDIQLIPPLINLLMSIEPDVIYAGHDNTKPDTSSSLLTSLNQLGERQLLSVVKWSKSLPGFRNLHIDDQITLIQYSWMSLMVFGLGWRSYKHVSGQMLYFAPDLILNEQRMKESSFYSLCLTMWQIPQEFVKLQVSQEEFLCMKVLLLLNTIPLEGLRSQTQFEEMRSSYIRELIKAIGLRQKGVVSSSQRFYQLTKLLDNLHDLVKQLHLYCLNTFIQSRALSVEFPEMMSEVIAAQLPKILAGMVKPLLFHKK

Estrogen receptor beta = Estrogen receptor beta (Homo sapiens, UniProt Q92731)
Chain of Estrogen receptor beta (Q92731 whole entry): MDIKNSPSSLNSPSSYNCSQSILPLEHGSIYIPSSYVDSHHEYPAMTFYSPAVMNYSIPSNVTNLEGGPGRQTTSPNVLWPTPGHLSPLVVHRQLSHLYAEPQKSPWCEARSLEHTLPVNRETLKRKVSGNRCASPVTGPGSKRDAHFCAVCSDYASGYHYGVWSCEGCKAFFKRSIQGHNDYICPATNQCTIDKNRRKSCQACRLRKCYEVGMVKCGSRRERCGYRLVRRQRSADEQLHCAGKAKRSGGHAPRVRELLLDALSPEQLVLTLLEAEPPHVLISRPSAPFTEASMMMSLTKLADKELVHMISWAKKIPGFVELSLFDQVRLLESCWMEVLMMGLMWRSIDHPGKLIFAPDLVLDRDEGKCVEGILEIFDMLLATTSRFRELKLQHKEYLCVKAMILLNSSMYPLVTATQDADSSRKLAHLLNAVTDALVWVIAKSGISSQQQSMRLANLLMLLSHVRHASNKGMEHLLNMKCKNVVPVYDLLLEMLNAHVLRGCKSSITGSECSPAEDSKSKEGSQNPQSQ

Mu-type opioid receptor = Mu-type opioid receptor (Homo sapiens, UniProt P35372); assay: biochemical; type: functional
Chain of Mu-type opioid receptor (P35372 whole entry): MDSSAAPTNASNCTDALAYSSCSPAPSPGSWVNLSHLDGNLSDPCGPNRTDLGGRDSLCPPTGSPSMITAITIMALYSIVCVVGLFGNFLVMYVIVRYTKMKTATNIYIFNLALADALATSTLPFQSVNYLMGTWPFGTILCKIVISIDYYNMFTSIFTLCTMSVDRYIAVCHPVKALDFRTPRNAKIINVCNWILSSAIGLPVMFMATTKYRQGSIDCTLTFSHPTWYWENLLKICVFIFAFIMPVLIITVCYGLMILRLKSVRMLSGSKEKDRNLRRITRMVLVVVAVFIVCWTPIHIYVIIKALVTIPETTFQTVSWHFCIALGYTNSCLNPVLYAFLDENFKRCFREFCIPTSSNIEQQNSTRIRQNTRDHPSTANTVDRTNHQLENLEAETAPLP

[3] = biological target: T3, Endothelin receptor type B (Homo sapiens, UniProt P24530)
T3 sequence (P24530 whole entry): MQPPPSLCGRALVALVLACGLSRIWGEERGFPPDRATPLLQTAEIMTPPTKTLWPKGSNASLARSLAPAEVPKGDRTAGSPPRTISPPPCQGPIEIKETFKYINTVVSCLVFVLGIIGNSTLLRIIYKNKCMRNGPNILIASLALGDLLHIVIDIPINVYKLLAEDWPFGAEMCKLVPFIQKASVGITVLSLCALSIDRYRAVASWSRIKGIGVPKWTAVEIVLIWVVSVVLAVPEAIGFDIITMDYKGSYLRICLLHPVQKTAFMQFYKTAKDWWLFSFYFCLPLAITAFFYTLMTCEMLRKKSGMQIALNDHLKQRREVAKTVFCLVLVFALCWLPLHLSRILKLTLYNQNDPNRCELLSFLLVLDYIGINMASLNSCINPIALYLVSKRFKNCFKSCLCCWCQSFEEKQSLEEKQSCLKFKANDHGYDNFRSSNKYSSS

[4] = biological target: Beta-3 adrenergic receptor (Homo sapiens, UniProt P13945)
Chain of Beta-3 adrenergic receptor (P13945 whole entry): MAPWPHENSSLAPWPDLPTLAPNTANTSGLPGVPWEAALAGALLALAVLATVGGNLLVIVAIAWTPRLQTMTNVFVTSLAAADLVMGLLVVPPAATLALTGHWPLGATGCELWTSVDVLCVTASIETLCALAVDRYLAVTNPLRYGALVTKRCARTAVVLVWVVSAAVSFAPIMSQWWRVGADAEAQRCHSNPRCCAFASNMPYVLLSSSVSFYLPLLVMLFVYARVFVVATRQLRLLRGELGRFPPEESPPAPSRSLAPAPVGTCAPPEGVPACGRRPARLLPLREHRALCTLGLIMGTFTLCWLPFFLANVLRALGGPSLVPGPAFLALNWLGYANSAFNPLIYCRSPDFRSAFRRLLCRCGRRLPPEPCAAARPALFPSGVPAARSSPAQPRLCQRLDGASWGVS

D(1A) dopamine receptor = D(1A) dopamine receptor (Homo sapiens, UniProt P21728)
Chain of D(1A) dopamine receptor (P21728 whole entry): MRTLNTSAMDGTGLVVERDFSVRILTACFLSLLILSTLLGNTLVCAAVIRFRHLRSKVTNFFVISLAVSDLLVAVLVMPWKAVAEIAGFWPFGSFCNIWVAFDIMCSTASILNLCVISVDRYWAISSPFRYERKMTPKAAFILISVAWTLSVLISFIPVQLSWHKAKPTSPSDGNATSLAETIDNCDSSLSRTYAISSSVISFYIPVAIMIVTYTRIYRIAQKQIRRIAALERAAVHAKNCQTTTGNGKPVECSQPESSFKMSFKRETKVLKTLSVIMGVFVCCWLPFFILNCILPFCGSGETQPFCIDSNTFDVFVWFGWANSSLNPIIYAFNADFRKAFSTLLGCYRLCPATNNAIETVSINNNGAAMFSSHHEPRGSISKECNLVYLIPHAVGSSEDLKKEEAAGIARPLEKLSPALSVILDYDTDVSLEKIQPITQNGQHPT

Histamine H2 receptor = Histamine H2 receptor (Homo sapiens, UniProt P25021)
Chain of Histamine H2 receptor (P25021 whole entry): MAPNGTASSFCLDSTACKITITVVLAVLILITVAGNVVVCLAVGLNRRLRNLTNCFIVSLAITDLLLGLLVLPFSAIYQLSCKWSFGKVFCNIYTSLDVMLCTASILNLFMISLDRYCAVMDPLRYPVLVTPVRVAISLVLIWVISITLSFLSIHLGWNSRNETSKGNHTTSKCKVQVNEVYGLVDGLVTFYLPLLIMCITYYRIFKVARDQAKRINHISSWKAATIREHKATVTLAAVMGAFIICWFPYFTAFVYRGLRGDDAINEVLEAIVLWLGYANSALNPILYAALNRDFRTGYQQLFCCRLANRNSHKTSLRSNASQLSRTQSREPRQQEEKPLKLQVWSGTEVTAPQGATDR
Further: assay procedure not described here.

Chain of Vascular endothelial growth factor receptor 2 (P35968 whole entry): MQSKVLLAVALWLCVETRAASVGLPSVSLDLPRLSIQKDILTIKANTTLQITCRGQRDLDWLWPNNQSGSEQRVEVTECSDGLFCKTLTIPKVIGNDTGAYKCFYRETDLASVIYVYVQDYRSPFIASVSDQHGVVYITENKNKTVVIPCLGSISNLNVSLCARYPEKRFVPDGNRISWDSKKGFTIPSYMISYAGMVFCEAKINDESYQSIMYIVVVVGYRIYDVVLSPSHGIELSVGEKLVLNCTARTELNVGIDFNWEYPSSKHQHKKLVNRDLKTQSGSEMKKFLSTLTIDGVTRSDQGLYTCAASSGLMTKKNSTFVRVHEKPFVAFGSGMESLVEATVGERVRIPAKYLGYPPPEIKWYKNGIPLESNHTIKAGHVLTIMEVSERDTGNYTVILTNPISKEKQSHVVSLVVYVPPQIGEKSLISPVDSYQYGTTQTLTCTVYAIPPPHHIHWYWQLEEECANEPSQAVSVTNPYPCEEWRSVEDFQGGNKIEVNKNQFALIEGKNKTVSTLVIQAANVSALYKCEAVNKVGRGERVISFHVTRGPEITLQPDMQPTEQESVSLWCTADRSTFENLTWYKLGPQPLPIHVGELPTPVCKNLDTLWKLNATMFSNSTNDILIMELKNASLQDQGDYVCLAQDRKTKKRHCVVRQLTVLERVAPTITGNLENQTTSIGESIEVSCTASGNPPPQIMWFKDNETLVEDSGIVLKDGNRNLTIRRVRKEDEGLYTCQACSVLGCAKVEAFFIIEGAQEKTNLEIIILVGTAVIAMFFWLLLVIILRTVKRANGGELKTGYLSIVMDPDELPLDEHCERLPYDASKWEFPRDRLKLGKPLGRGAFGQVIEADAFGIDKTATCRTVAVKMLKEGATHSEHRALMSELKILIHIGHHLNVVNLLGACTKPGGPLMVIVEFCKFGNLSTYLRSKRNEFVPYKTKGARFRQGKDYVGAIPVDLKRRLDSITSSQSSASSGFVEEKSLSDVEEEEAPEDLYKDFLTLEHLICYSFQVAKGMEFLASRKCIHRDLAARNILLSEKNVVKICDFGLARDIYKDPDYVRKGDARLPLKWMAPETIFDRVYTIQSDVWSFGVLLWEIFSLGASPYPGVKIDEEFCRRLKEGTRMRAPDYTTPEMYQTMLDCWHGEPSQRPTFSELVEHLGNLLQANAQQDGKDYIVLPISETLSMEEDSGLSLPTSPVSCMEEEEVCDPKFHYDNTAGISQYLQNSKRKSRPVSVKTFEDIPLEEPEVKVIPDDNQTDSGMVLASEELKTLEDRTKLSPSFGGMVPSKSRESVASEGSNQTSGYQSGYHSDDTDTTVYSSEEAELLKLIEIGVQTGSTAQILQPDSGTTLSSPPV

CC(=N)N1CC[C@H](SC2=C(C(=O)O)N3C(=O)[C@H]([C@@H](C)O)[C@H]3C2)C1
AC50 [1]: > 300 µM
AC50 (Estrogen receptor): > 300 µM

Cc1ccc([C@@H]2O[C@H](CO)[C@@H](O)[C@H](O)[C@H]2O)cc1Cc1ccc(-c2ccc(F)cc2)s1 [CANAGLIFLOZIN ANHYDROUS]
AC50 [2]: 20 µM

C=C(C)[C@@H]1CCC(C)=C[C@H]1c1c(O)cc(CCCCC)cc1O [CANNABIDIOL]
AC50 [1]: > 30 µM
AC50 (Estrogen receptor): > 30 µM

CNCC[C@H](Oc1cccc2ccccc12)c1cccs1 [DULOXETINE]
AC50 [2]: 1.4 µM
AC50 (Cannabinoid receptor 1): > 10 µM
AC50 (Progesterone receptor): > 30 µM

C[C@H]1Oc2cc(cnc2N)-c2c(nn(C)c2C#N)CN(C)C(=O)c2ccc(F)cc21 [LORLATINIB]
AC50 [1]: > 30 µM
AC50 (Estrogen receptor): > 30 µM

CC(C)COc1ccc(CNC(=O)N(Cc2ccc(F)cc2)C2CCN(C)CC2)cc1 [PIMAVANSERIN]
AC50 [2]: 3.1 µM

CC(C)C[C@H](CN)CC(=O)O [PREGABALIN]
AC50 [1]: > 30 µM
AC50 (Cannabinoid receptor 1): > 30 µM
AC50 (Estrogen receptor beta): > 30 µM
AC50 (Progesterone receptor): 20.2 µM
AC50 (Mu-type opioid receptor): > 30 µM
AC50 (Estrogen receptor): > 30 µM
AC50 [3]: > 30 µM
AC50 [4]: > 30 µM

NC(=O)c1ncn([C@@H]2O[C@H](CO)[C@@H](O)[C@H]2O)n1 [RIBAVIRIN]
AC50 [2]: > 30 µM
AC50 (Cannabinoid receptor 1): > 10 µM

O=C(Nc1c(Cl)cncc1Cl)c1ccc(OC(F)F)c(OCC2CC2)c1 [ROFLUMILAST]
AC50 [2]: 12.1 µM
AC50 (Mu-type opioid receptor): > 30 µM

CCCN(CCc1cccs1)[C@H]1CCc2c(O)cccc2C1 [ROTIGOTINE]
AC50 [1]: > 30 µM
AC50 (Estrogen receptor): > 30 µM

CC[C@H]1OC(=O)[C@H](C)[C@@H](O[C@H]2C[C@@](C)(OC)[C@@H](O)[C@H](C)O2)[C@H](C)[C@@H](O[C@@H]2O[C@H](C)C[C@H](N(C)C)[C@H]2O)[C@](C)(O)C[C@@H](C)/C(=N\OCOCCOC)[C@H](C)[C@@H](O)[C@]1(C)O [ROXITHROMYCIN]
AC50 [1]: > 30 µM
AC50 (Estrogen receptor): > 30 µM

CC(C)N(CCCCOCC(=O)NS(C)(=O)=O)c1cnc(-c2ccccc2)c(-c2ccccc2)n1 [SELEXIPAG]
AC50 [2]: > 30 µM
AC50 (Mu-type opioid receptor): > 30 µM

CC(=O)S[C@@H]1CC2=CC(=O)CC[C@]2(C)[C@H]2CC[C@@]3(C)[C@@H](CC[C@@]34CCC(=O)O4)[C@H]12 [SPIRONOLACTONE]
AC50 [1]: > 30 µM
AC50 (Cannabinoid receptor 1): > 10 µM
AC50 (D(1A) dopamine receptor): > 10 µM
AC50 (Histamine H2 receptor): > 10 µM
AC50 (Estrogen receptor): > 30 µM
AC50 [3]: > 30 µM
AC50 [4]: > 30 µM

NC(=O)NS(=O)(=O)c1ccc(N)cc1 [SULFACARBAMIDE]
AC50 [2]: > 30 µM

CCCCCCCCNC(C)C(O)c1ccc(SC(C)C)cc1 (stereo not drawn) [SULOCTIDIL]
AC50 [2]: 0.0013 µM
